According to patent EP2926811A1, “ARTEMETHER-CONTAINING PHARMACEUTICAL COMPOSITION, PREPARATION, AND USE THEREOF” (Kunming Pharmaceutical Corp., priority 2012, dated 2014):
Read-outs that look alike come from different tables or passages of the source.

Key:
Assay type in all cases: cell-based
MKN-28 cells = assay: modified MTT method, proliferation of MKN-28 cells; conditions: Homo sapiens, MKN-28, 72 h, secondary screening
Method: (§1) Five test concentrations 2, 10, 50, 250 and 500 µM were set for each of five derivatives of artemisinin, artemether drug substance, artemisinin, dihydroartemisinin, artesunate were dissolved with dimethyl sulfoxide (DMSO), while the lyophilized powder of artemether was dissolved with normal saline (N.S.), followed by addition of a certain amount of RPMI 1640 complete culture solution to formulate a high-concentration solution, and each of the low-concentration solutions was formulated by proportionate dilution from the high-concentration solution.
(§2) The concentrations of DMSO contained in the solutions at the two relatively high concentrations 500 and 250 µM for the artemether drug substance, artemisinin, dihydroartemisinin, artesunate, used as solvent controls, were formulated with […] culture solution, at which time the test concentrations of DMSO were 1% and 0.5%. The concentrations of the excipients contained in the solutions at the two relatively high concentrations 500 and 250 µM for the preparation of lyophilized powder of artemether were used as solvent controls.
(§3) The positive control was an anti-cancer drug adriamycin (ADM), which was set at three test concentrations (final concentrations) of 0.1, 1 and 10 µg/ml. To ADM stock solution (1 mg/ml) a certain amount of PRMI 1640 complete culture solution was added, to formulate a high-concentration solution, and each of the low-concentration solutions were formulated by proportionate dilutions from the high-concentration solution.
(§4) HL-60: (human promyelocytic leukemia cell line); K562 (human chronic myelocytic leukemia cell line); HT-29 (human colon cancer cell line); PC-3 (human prostate cancer cell line); A549 (human non-small cell lung cancer cell line); MKN-28 (human gastric cancer cell line); Hep2 (human laryngeal cancer cell line), all of which were purchased from Cell Bank of Shanghai Institutes for Biological Sciences, the Chinese Academy of Sciences.
(§5) Influence of the five test samples on the proliferation of 7 human tumor cell lines was determined via a modified MTT method.
(§6) Cells in logarithmic growth phase were taken, adjusted to a certain concentration and then added into a 96 well culture plate. After culture of adherent cells for a period until adherence, the test samples were added; and for suspension cells, the test samples were added after inoculation. 5 test concentrations 2, 10, 50, 250 and 500 µM were set, with 3 parallel wells for each concentration, 10 µl/well; the solvent controls were 0.5% and 1% of isovolumetric DMSO, and the positive controls was ADM at 3 concentrations 0.1, 1 and 10 µg/ml. The samples were loaded followed by culture for a period of time in an incubator at 37°C, 5% CO2, followed by addition of MTT (5 mg/ml) at 20 µl/well, and continued to be cultured for a period of time and added with a three-combined solution [10% SDS - 5% isobutanol - 0.012 mol/L HCl (W/V/V)]. After dissolving in uniformity, it was continued to be placed in the incubator at 37°C, 5% CO2 for a period of time, and the OD value of each well was determined under a wavelength of 570 nm with a microplate reader, according to which the results were calculated.
(§7) The cellular proliferation inhibition rate was calculated in accordance with the following equation: Inhibition rate (%) = (OD valuecontrol well-OD valuesample well)/OD valuecontrol well × 100% [formula]
(§8) When the inhibition rate of DMSO on cells was more than 15%, calculation was carried out using the following equation: Inhibition rate (%) = (OD valuesolvent group-OD valueadministered well)/OD valuesolvent group × 100% [formula]
(§9) The inhibition rate was calculated by using Microsoft Excel 2003, and median inhibitory concentration IC50 was calculated with a LOGIT method, which was used as an indicator for judging the inhibitory capability.
(§10) According to the results of preliminary screening, further experiments were adjusted such that more sensitive cell lines were screened out. […]

A549 cells = assay: modified MTT method, proliferation of A549 cells; conditions: Homo sapiens, read-out: IC50 on the growth of A549 cells
Method: as §1, §2, §3, §4, §5, §6, §7, §8, §9

7 human tumor cell lines = assay: modified MTT method, summary over the panel of human tumor cell lines; conditions: HL-60, K562, A549, HT-29, PC-3, MKN-28, Hep2
Text: as §4, §5
Cells in logarithmic growth phase were taken, adjusted to a certain concentration and then added into a 96 well culture plate. After culture of adherent cells for a period until adherence, the test samples were added; and for suspension cells, the test samples were added after inoculation. […] After dissolving in uniformity, it was continued to be placed in the incubator at 37°C, 5% CO2 for a period of time, and the OD value of each well was determined under a wavelength of 570 nm with a microplate reader, according to which the results were calculated.
as §9

HT-29 cells = assay: modified MTT method, proliferation of HT-29 cells; conditions: Homo sapiens
Method: as §1, §2, §3, §4, §5, §6, §7, §8, §9, §10

K562 cells = assay: modified MTT method, proliferation of K562 cells; conditions: Homo sapiens, read-out: IC50 on the growth of K562 cells
Method: as §1, §2, §3, §4, §5, §6, §7, §8, §9

PC-3 cells = assay: modified MTT method, proliferation of PC-3 cells; conditions: Homo sapiens, read-out: IC50 on the growth of PC-3 cells
Method: as §1, §2, §3, §4, §5, §6, §7, §8, §9

Hep2 cells = assay: modified MTT method, proliferation of Hep2 cells; conditions: Homo sapiens, HEp-2, 72 h, secondary screening
Method: as §1, §2, §3, §4, §5, §6, §7, §8, §9, §10

HL-60 cells = assay: modified MTT method, proliferation of HL-60 cells; conditions: Homo sapiens, read-out: IC50 on the growth of HL-60 cells
Method: as §1, §2, §3, §4, §5, §6, §7, §8, §9

IC50 (MKN-28 cells; Average, read-out: IC50 on the growth of MKN-28 cells (72 h)): 0.97 mM
IC50 (MKN-28 cells; Batch 1, read-out: IC50 on the growth of MKN-28 cells (72 h)): 0.588 mM
IC50 (MKN-28 cells; Batch 2, read-out: IC50 on the growth of MKN-28 cells (72 h)): 1.44 mM
IC50 (MKN-28 cells; Batch 3, read-out: IC50 on the growth of MKN-28 cells (72 h)): 1.61 mM
IC50 (A549 cells; A549, 24 h, Batch 1, 24 h): > 1 mM
IC50 (A549 cells; A549, 24 h, Batch 2, 24 h): 0.421 mM
IC50 (A549 cells; A549, 48 h, Batch 1, 48 h): > 1 mM
IC50 (A549 cells; A549, 48 h, Batch 2, 48 h): > 1 mM
IC50 (A549 cells; A549, 72 h, Batch 1, 72 h): > 1 mM
IC50 (A549 cells; A549, 72 h, Batch 2, 72 h): > 1 mM
IC50 (HT-29 cells; HT-29, 24 h, preliminary screening, Batch 1, 24 h, read-out: IC50 on the growth of HT-29 cells): > 1 mM
IC50 (HT-29 cells; HT-29, 24 h, preliminary screening, Batch 2, 24 h, read-out: IC50 on the growth of HT-29 cells): > 1 mM
IC50 (HT-29 cells; HT-29, 48 h, preliminary screening, Batch 1, 48 h, read-out: IC50 on the growth of HT-29 cells): > 1 mM
IC50 (HT-29 cells; HT-29, 48 h, preliminary screening, Batch 2, 48 h, read-out: IC50 on the growth of HT-29 cells): > 1 mM
IC50 (HT-29 cells; HT-29, 72 h, preliminary screening, Batch 1, 72 h, read-out: IC50 on the growth of HT-29 cells): > 1 mM
IC50 (HT-29 cells; HT-29, 72 h, preliminary screening, Batch 2, 72 h, read-out: IC50 on the growth of HT-29 cells): > 1 mM
IC50 (HT-29 cells; HT-29, 72 h, secondary screening, 72 h, Batch 1, read-out: IC50 on the growth of HT-29 cells (72 h)): 2.35 mM
IC50 (HT-29 cells; HT-29, 72 h, secondary screening, 72 h, Batch 2, read-out: IC50 on the growth of HT-29 cells (72 h)): 0.773 mM
IC50 (HT-29 cells; HT-29, 72 h, secondary screening, 72 h, Batch 3, read-out: IC50 on the growth of HT-29 cells (72 h)): 0.437 mM
IC50 (HT-29 cells; HT-29, 72 h, secondary screening, 72 h, average, read-out: IC50 on the growth of HT-29 cells (72 h)): 0.545 mM
IC50 (K562 cells; K562, 24 h, Batch 1, 24 h): > 1000 µM
IC50 (K562 cells; K562, 24 h, Batch 2, 24 h): > 1000 µM
IC50 (K562 cells; K562, 24 h, Batch 3, 24 h): > 1000 µM
IC50 (K562 cells; K562, 48 h, Batch 1, 48 h): > 1000 µM
IC50 (K562 cells; K562, 48 h, Batch 2, 48 h): > 1000 µM
IC50 (K562 cells; K562, 48 h, Batch 3, 48 h): 991 µM
IC50 (K562 cells; K562, 72 h, Batch 1, 72 h): > 1000 µM
IC50 (K562 cells; K562, 72 h, Batch 2, 72 h): 518 µM
IC50 (K562 cells; K562, 72 h, Batch 3, 72 h): 449 µM
IC50 (PC-3 cells; PC-3, 24 h, Batch 1, 24 h): > 1 mM
IC50 (PC-3 cells; PC-3, 24 h, Batch 2, 24 h): > 1 mM
IC50 (PC-3 cells; PC-3, 48 h, Batch 1, 48 h): > 1 mM
IC50 (PC-3 cells; PC-3, 48 h, Batch 2, 48 h): > 1 mM
IC50 (PC-3 cells; PC-3, 72 h, Batch 1, 72 h): > 1 mM
IC50 (PC-3 cells; PC-3, 72 h, Batch 2, 72 h): > 1 mM
IC50 (HL-60 cells; HL-60, 24 h, Batch 1, 24 h): > 1000 µM
IC50 (HL-60 cells; HL-60, 24 h, Batch 2, 24 h): 750 µM
IC50 (HL-60 cells; HL-60, 48 h, Batch 1, 48 h): > 1000 µM
IC50 (HL-60 cells; HL-60, 48 h, Batch 2, 48 h): 331 µM
IC50 (HL-60 cells; HL-60, 72 h, Batch 1, 72 h): > 1000 µM
IC50 (HL-60 cells; HL-60, 72 h, Batch 2, 72 h): 577 µM
SMILES: C[C@@H]1CC[C@H]2[C@@H](C)C(=O)O[C@@H]3O[C@@]4(C)CC[C@@H]1[C@]32OO4 [artemisinin]
inhibitory effect on the 7 human tumor cell lines in vitro (7 human tumor cell lines): no apparent inhibitory effect
IC50 (Hep2 cells; Batch 1, read-out: IC50 on the growth of Hep2 cells (72 h)): 350 µM
IC50 (Hep2 cells; Batch 2, read-out: IC50 on the growth of Hep2 cells (72 h)): 271 µM
IC50 (Hep2 cells; Batch 3, read-out: IC50 on the growth of Hep2 cells (72 h)): > 1000 µM
IC50 (Hep2 cells; average, read-out: IC50 on the growth of Hep2 cells (72 h)): 952 µM
